Assay [1] relates to CARP mRNA. Briefly: CARP mRNA levels in isolated myocytes treated with adrenoceptor agonists and kinase inhibitors. The assay is classed as cell-based. Conditions: for reversal of the effects of ISO and PE on CARP mRNA expression: ISO 1 μM, PE 50 μM; for CARP mRNA/GAPDH mRNA: ISO 1 μM (n=9), PE 50 μM (n=11). The method, then: (§1) Male Wistar rats were treated with isoprenaline (ISO, 2.4 mg/kg/d, Alzet mini pump) for 4 days. Controls were infused with NaCl. […] To gain further insight into the mechanism by which CARP expression is regulated, isolated myocytes were treated with ISO (1 μM) and phenylephrine (PE, 50 μM). For comparison the effects of the alpha-adrenoceptor agonist phenylephrine (PE, 50 μM) were studied.

Assay [2] concerns CARP protein. Briefly: CARP protein levels in isolated myocytes treated with adrenoceptor agonists. The class given is cell-based. Conditions: ISO 1 μM, PE 50 μM, n=4. The method, then:
as §1

Assay [3] is described as follows: Isoprenaline-induced cardiac hypertrophy in rats (heart weight/body weight). Conditions: 2.4 mg/kg/d, Alzet mini pump, 4 days; vs NaCl controls. The class given is in vivo, Male Wistar rats. As for the experimental part: as §1
Assay [4] has as its system CARP protein. Briefly: CARP protein in treated rats, Western blot. The assay is classed as in vivo, Male Wistar rats. The following applies: 2.4 mg/kg/d, 4 days. As for the experimental part:
as §1

The test system of assay [5] is CARP mRNA. Briefly: CARP mRNA expression in left ventricular myocardium of treated rats, Northern blot. The class given is in vivo, Male Wistar rats. Conditions: 2.4 mg/kg/d, 4 days. As for the experimental part: as §1

With `N#CC(=C(/N)Sc1ccccc1N)/C(C#N)=C(\N)Sc1ccccc1N` [U0126], the “reversal of the effects of ISO and PE on CARP mRNA expression” value in the assay with CARP mRNA [1] is on record as “completely reversed”.
`C[S+]([O-])c1ccc(-c2nc(-c3ccncc3)c(-c3ccc(F)cc3)[nH]2)cc1` (centres unmarked) [SB203580]: the “reversal of the effects of ISO and PE on CARP mRNA expression” value in the assay with CARP mRNA [1] was “not”.
Consider `CC(C)NCC(O)c1ccc(O)c(O)c1` (centres unmarked) [ISO, isoprenaline], for which the “CARP/CSQ (CARP protein level)” value in the assay on CARP protein [2] is recorded as 161±10 % of control. The “increase in heart weight/body weight ratio” value in assay [3] was 40%. Moreover, the “increase in CARP protein” value with CARP protein [4] (Western blot, vs NaCl) was 50%. In the assay on CARP protein [4] (n=6, NaCl control 0.41±0.03), this compound returned a CARP/calsequestrin of 0.61±0.07. Besides, the “CARP mRNA/GAPDH mRNA” value in the assay with CARP mRNA [5] (LV myocardium, n=6, NaCl control 1.3±0.12) is 3.1±0.5; in the assay with CARP mRNA [1], 148±10 % of control. The “increase in CARP mRNA expression in left ventricular (LV) myocardium” value in the assay on CARP mRNA [5] (Northern blot, vs NaCl) was found to be 140%.
In the case of `CNC[C@H](O)c1cccc(O)c1` [PE, phenylephrine], the “CARP/CSQ (CARP protein level)” value with CARP protein [2] is given as 172±7 % of control. In addition, in the assay with CARP mRNA [1], the “CARP mRNA/GAPDH mRNA” value is 178±20 % of control.

The values are drawn from patent US20040014706A1, “Use of carp inhibitors for the treatment of heart diseases” (priority 2000, published 2004).
